Among the data in patent US8901118B2, “Compounds and methods for kinase modulation, and indications therefor” (Plexxikon Inc., priority 2010, dated 2014) are IC50 values, retold here.

A value given as a limit tells only on which side of the number the result lay.

One assay addresses CYP3A4(BFC) (Homo sapiens, UniProt P08684). The assay can be described thus: CYP3A4(BFC) inhibition. In kind it is in vitro ADME. To be noted: CYP3A4, substrate BFC; read-out: Cyp IC50 3A4(BFC). The method in brief: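 Inhibition of human CYP3A4 with the BFC substrate was measured by fluorescence loss of the metabolized product. Compounds at 100 mM in DMSO were diluted 1 μL into 82 μL acetonitrile, then 11 μL into 204 μL cofactor mix with NADPH regeneration solutions, and serially diluted 1:1 to 10 points. Plates were incubated 30 min at 37° C and read at 409 ex/460 em to obtain IC50.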

Another assay has as its target T1, BCR-KIT BaF3 cells (Homo sapiens, UniProt P10721).
T1 construct: fused on or other part: P11274 (Breakpoint cluster region protein)
The assay can be described thus: BaF3 BCR-KIT cell proliferation assay (ATPlite). Conditions: read-out: Inhibition of Cell Proliferation IC50, BCR/BaF3 Kit. In kind it is cell-based. The gist of the method: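 BaF3 cells expressing BCR fusions were plated at 10,000 cells/well without IL-3, and MV-4-11 cells at 25,000 cells/well. Cells were treated the next day with an 8-point 1:3 dilution series (top 10 μM final) and incubated 3 days at 37 °C. ATPlite luminescence gave cell number, from which IC50 was fitted.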
Background: Cellular ATP, detected with luciferase, serves as a proxy for viable cell number.

In a further assay the target is CYP2C9 (Homo sapiens, UniProt P11712). Briefly: CYP2C9 inhibition (fluorescent substrate MFC). Conditions: read-out: Cyp IC50 2C9. In kind it is in vitro ADME. The method in brief:
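Test compounds, 10-point 1:1 serial dilutions in NADPH-regenerating cofactor mix, were preincubated 10 min at 37° C before recombinant enzyme and fluorogenic substrate reactions at 37° C (CYP1A2 15 min; CYP2C9 45 min; CYP2C19, 2D6 30 min). Product fluorescence was read at 409 ex with 460 em (1A2, 2C19) or 530 em (2C9, 2D6), and IC50 fitted from signal versus concentration.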

T1 sequence (P10721 589-937): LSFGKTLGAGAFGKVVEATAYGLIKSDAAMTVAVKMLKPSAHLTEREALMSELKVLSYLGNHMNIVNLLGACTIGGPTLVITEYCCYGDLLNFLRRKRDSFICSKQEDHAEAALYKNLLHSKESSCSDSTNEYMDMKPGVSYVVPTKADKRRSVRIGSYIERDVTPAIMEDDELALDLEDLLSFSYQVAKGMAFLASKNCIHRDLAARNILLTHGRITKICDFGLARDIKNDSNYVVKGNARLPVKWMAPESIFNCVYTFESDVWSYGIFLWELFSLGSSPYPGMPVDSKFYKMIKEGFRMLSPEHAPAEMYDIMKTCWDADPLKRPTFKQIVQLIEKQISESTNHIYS
Chain of CYP2C9 (P11712 whole entry): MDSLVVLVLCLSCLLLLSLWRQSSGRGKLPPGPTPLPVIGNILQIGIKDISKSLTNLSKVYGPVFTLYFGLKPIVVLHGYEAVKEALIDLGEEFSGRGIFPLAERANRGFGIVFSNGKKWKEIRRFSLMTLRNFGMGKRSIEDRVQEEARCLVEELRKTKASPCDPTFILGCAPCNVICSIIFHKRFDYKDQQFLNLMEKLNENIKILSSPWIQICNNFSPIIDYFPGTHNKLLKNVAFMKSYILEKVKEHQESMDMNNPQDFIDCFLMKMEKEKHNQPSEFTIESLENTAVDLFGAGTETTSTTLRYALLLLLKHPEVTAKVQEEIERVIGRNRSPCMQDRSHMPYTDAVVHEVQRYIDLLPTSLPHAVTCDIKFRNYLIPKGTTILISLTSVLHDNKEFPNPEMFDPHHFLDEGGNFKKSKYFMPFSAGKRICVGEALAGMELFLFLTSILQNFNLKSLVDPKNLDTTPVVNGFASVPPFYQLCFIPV
Chain of CYP3A4(BFC) (P08684 whole entry): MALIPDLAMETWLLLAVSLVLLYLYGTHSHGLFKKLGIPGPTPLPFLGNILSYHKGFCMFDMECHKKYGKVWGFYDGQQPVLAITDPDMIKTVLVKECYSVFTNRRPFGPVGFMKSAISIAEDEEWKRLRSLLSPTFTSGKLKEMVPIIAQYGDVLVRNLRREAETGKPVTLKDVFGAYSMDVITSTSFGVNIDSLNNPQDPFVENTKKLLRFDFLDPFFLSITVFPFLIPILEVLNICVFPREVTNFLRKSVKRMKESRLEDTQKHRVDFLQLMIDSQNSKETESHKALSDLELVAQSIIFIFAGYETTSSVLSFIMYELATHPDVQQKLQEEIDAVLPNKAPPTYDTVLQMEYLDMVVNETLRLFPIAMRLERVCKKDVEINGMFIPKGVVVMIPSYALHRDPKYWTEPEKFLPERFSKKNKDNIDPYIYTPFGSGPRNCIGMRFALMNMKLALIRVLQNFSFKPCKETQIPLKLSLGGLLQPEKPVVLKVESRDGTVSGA

On to `Cc1ccc(Nc2ccc(C(=O)c3c[nH]c4ncc(Cl)cc34)c(F)n2)cn1` [Compound P-3044, (5-Chloro-1H-pyrrolo[2,3-b]pyridin-3-yl)-[2-fluoro-6-(6-methyl-pyridin-3-ylamino)-pyridin-3-yl]-methanone], for which the IC50 was over 10 µM on CYP3A4(BFC), under 1 µM at BCR-KIT BaF3 cells and over 10 µM on CYP2C9.
With `CCc1ccc(Nc2ccc(Cc3c[nH]c4ncc(C)cc34)c(F)n2)cn1` [Compound P-3048, (6-Ethyl-pyridin-3-yl)-[6-fluoro-5-(5-methyl-1H-pyrrolo[2,3-b]pyridin-3-ylmethyl)-pyridin-2-yl]-amine], the results for the IC50 on CYP3A4(BFC), at BCR-KIT BaF3 cells and at CYP2C9 were over 10 µM, under 0.1 µM and over 10 µM, respectively.
As to `CCc1ccc(Nc2ccc(C(=O)c3c[nH]c4ncc(C)cc34)c(F)n2)cn1` [Compound P-3049, [6-(6-Ethyl-pyridin-3-ylamino)-2-fluoro-pyridin-3-yl]-(5-methyl-1H-pyrrolo[2,3-b]pyridin-3-yl)-methanone], the IC50 at CYP3A4(BFC) was over 10 µM; at BCR-KIT BaF3 cells, under 0.1 µM; on CYP2C9 it was over 10 µM.
On to `Cc1cnc2[nH]cc(Cc3ccc(Nc4ccc(C5CC5)nc4)nc3F)c2c1` [Compound P-3050, (6-Cyclopropyl-pyridin-3-yl)-[6-fluoro-5-(5-methyl-1H-pyrrolo[2,3-b]pyridin-3-ylmethyl)-pyridin-2-yl]-amine], for which the IC50 was over 10 µM on CYP3A4(BFC), under 1 µM at BCR-KIT BaF3 cells and over 10 µM at CYP2C9.
For `Cc1cnc2[nH]cc(C(=O)c3ccc(Nc4ccc(C5CC5)nc4)nc3F)c2c1` [Compound P-3051, [6-(6-Cyclopropyl-pyridin-3-ylamino)-2-fluoro-pyridin-3-yl]-(5-methyl-1H-pyrrolo[2,3-b]pyridin-3-yl)-methanone], the figures for the IC50 at CYP3A4(BFC), at BCR-KIT BaF3 cells and at CYP2C9 were over 10 µM, under 1 µM and over 10 µM, respectively.
For the compound `COc1ccc(Nc2ccc(Cc3c[nH]c4ncnc(OC)c34)c(F)n2)cn1` [Compound P-4001, [6-Fluoro-5-(4-methoxy-7H-pyrrolo[2,3-d]pyrimidin-5-ylmethyl)-pyridin-2-yl]-(6-methoxy-pyridin-3-yl)-amine], the IC50 is over 10 µM at CYP3A4(BFC), under 1 µM on BCR-KIT BaF3 cells and over 10 µM on CYP2C9.
In the case of `COc1ccc(Nc2ccc(Cc3c[nH]c4ncnc(C)c34)c(F)n2)cn1` [Compound P-4002, [6-Fluoro-5-(4-methyl-7H-pyrrolo[2,3-d]pyrimidin-5-ylmethyl)-pyridin-2-yl]-(6-methoxy-pyridin-3-yl)-amine], the IC50 on CYP3A4(BFC) was over 10 µM; on BCR-KIT BaF3 cells it was under 1 µM; at CYP2C9, over 10 µM.
In the case of `COc1ncnc2[nH]cc(Cc3ccc(Nc4ccc(Cl)nc4)nc3F)c12` [Compound P-4003, (6-Chloro-pyridin-3-yl)-[6-fluoro-5-(4-methoxy-7H-pyrrolo[2,3-d]pyrimidin-5-ylmethyl)-pyridin-2-yl]-amine], the IC50 is over 10 µM on CYP3A4(BFC), over 1 µM on BCR-KIT BaF3 cells and over 10 µM on CYP2C9.
For the compound `COc1ncnc2[nH]cc(Cc3ccc(Nc4ccc(C5CC5)nc4)nc3F)c12` [Compound P-4004, (6-Cyclopropyl-pyridin-3-yl)-[6-fluoro-5-(4-methoxy-7H-pyrrolo[2,3-d]pyrimidin-5-ylmethyl)-pyridin-2-yl]-amine], the IC50 on CYP3A4(BFC) is over 10 µM; at BCR-KIT BaF3 cells it was under 0.1 µM; at CYP2C9, over 10 µM.
With `CCOc1ccc(Nc2ccc(Cc3c[nH]c4ncnc(OC)c34)c(F)n2)cn1` [Compound P-4005, (6-Ethoxy-pyridin-3-yl)-[6-fluoro-5-(4-methoxy-7H-pyrrolo[2,3-d]pyrimidin-5-ylmethyl)-pyridin-2-yl]-amine], the IC50 on CYP3A4(BFC) was over 10 µM; on BCR-KIT BaF3 cells it was under 0.1 µM; on CYP2C9 it was over 10 µM.
Consider `CCOc1ccc(Nc2ccc(Cc3c[nH]c4ncnc(C)c34)c(F)n2)cn1` [Compound P-4006, (6-Ethoxy-pyridin-3-yl)-[6-fluoro-5-(4-methyl-7H-pyrrolo[2,3-d]pyrimidin-5-ylmethyl)-pyridin-2-yl]-amine], for which the IC50 at CYP3A4(BFC) was over 10 µM; on BCR-KIT BaF3 cells, under 0.1 µM; on CYP2C9 it was over 10 µM.
Consider `CCc1ccc(Nc2ccc(Cc3c[nH]c4ncnc(OC)c34)c(F)n2)cn1` [Compound P-4007, (6-Ethyl-pyridin-3-yl)-[6-fluoro-5-(4-methoxy-7H-pyrrolo[2,3-d]pyrimidin-5-ylmethyl)-pyridin-2-yl]-amine], for which the IC50 is over 10 µM on CYP3A4(BFC), under 1 µM at BCR-KIT BaF3 cells and over 10 µM on CYP2C9.
With `CCOc1ccc(Nc2ccc(Cc3c[nH]c4ncnc(OCCOC)c34)c(F)n2)cn1` [Compound P-4008, (6-Ethoxy-pyridin-3-yl)-{6-fluoro-5-[4-(2-methoxy-ethoxy)-7H-pyrrolo[2,3-d]pyrimidin-5-ylmethyl]-pyridin-2-yl}-amine], the IC50 is 5 to 10 µM at CYP3A4(BFC), under 1 µM at BCR-KIT BaF3 cells and over 10 µM at CYP2C9.
In the same order, the values of `CCc1ccc(Nc2ccc(Cc3c[nH]c4ncnc(C)c34)c(F)n2)cn1` [Compound P-4009, (6-Ethyl-pyridin-3-yl)-[6-fluoro-5-(4-methyl-7H-pyrrolo[2,3-d]pyrimidin-5-ylmethyl)-pyridin-2-yl]-amine] are over 10 µM, under 1 µM and over 10 µM.
For the compound `COc1ncnc2[nH]cc(Cc3ccc(Nc4ccc(C)nc4)nc3F)c12` [Compound P-4010, [6-Fluoro-5-(4-methoxy-7H-pyrrolo[2,3-d]pyrimidin-5-ylmethyl)-pyridin-2-yl]-(6-methyl-pyridin-3-yl)-amine], the IC50 was over 10 µM on CYP3A4(BFC), under 1 µM on BCR-KIT BaF3 cells and over 10 µM on CYP2C9.
As to `CCn1cc(Nc2ccc(Cc3c[nH]c4ncnc(OC)c34)c(F)n2)cn1` [Compound P-4011, (1-Ethyl-1H-pyrazol-4-yl)-[6-fluoro-5-(4-methoxy-7H-pyrrolo[2,3-d]pyrimidin-5-ylmethyl)-pyridin-2-yl]-amine], the IC50 was 5 to 10 µM at CYP3A4(BFC), over 1 µM on BCR-KIT BaF3 cells and 5 to 10 µM at CYP2C9.
`CCOc1ncnc2[nH]cc(Cc3ccc(Nc4cnn(CC)c4)nc3F)c12` [Compound P-4012, [5-(4-Ethoxy-7H-pyrrolo[2,3-d]pyrimidin-5-ylmethyl)-6-fluoro-pyridin-2-yl]-(1-ethyl-1H-pyrazol-4-yl)-amine]: the IC50 at CYP3A4(BFC) is over 10 µM; at BCR-KIT BaF3 cells, under 1 µM; on CYP2C9, over 10 µM.
As for `CCn1cc(Nc2ccc(Cc3c[nH]c4ncnc(C)c34)c(F)n2)cn1` [Compound P-4013, (1-Ethyl-1H-pyrazol-4-yl)-[6-fluoro-5-(4-methyl-7H-pyrrolo[2,3-d]pyrimidin-5-ylmethyl)-pyridin-2-yl]-amine], the IC50 at CYP3A4(BFC) is over 10 µM; on BCR-KIT BaF3 cells, under 1 µM; at CYP2C9 it was under 5 µM.
Take `CCn1cc(Nc2ccc(Cc3c[nH]c4ncnc(OCCOC)c34)c(F)n2)cn1` [Compound P-4014, (1-Ethyl-1H-pyrazol-4-yl)-{6-fluoro-5-[4-(2-methoxy-ethoxy)-7H-pyrrolo[2,3-d]pyrimidin-5-ylmethyl]-pyridin-2-yl}-amine]: the IC50 at CYP3A4(BFC) is 5 to 10 µM; on BCR-KIT BaF3 cells it was over 1 µM; at CYP2C9, 5 to 10 µM.
